Measured values published in patent publication US20150219624A1, “METHODS FOR IDENTIFYING ANTI-CANCER COMPOUNDS” (MEMORIAL SLOAN KETTERING CANCER CENTER, priority 2013, published 2015).

Legend:
renal carcinoma lines = assay: Silvestrol sensitivity of renal carcinoma lines; assay type: cell-based; conditions: ACHN, A498, CAKI-1, CAKI-2 to 786-O
KOPTK1 cells = assay: Transcriptome-scale ribosome footprinting (translational efficiency, rDiff ribosome distribution); assay type: cell-based, human; conditions: for log2(Translational Efficiency): TE down genes with G-Quadruplex structure
Description: Ribosome Footprinting. KOPTK1 cells were treated with silvestrol or DMSO for 45 minutes, followed by cycloheximide treatment for 10 minutes and then harvested for total RNA and ribosome footprint fragment isolation. Total RNA was isolated using RNA isolation kit from Qiagen (74104) and subjected to RNA sequencing. Ribosome protected fragments were isolated following published protocol (Ingolia et al., 2009). Briefly cell lysates were subjected to ribosome footprinting by nuclease treatment. Footprint fragments were purified by one step sucrose cushion and gel extraction. Deep sequencing libraries were generated from these fragments. Both total RNA and footprint fragment libraries were analyzed by sequencing on the HiSeq 2000 platform.
Sequence Alignment. Sequences were aligned to the transcripts available from the human genome sequence hg19 from UCSC public database. Ribosome footprint (RF) reads were aligned to reference genome hg19 using PALMapper (Jean et al., 2010). Only the uniquely aligned reads were used for analysis. Read length of 25- to 35-bp was selected and used to analyze the translation effect of silvestrol. Total mRNA sequencing reads were aligned to the hg19 reference using STAR (Dobin et al., 2013). The splice alignment was used, and only used the uniquely aligned reads with maximum 3 mismatches.
Footprint Profile Analysis. The genome annotation was from GENCODE project (http://www.gencodegenes.org/releases/14.html). Ribosome footprint intensity (reads per million, RPM) and the expression value (reads per kilobase per million, RPKM) were measured from total mRNA-seq data and translation values were measured from ribosome footprint data. To evaluate the translation efficiency (TE) change between silvestrol- and vehicle-treated samples, TE was calculated as RPKMfootprint/RPKMmRNA (as Thoreen et al. did recently (Thoreen et al., 2012)). Changes in ribosome footprint profiles were determined by using DEXSeq algorithm (Anders et al., 2012). DEXSeq accounts for the discrete nature of the read counts and models biological variability to avoid false positives. Ratio of TEsilvestrol/TEcontrol of all the genes was plotted and color-highlighted according to the statistical significance of DEXSeq test.
Ribosome distribution analysis. The ribosomal distribution change was evaluated between silvestrol treated samples and controls. A BED file containing all non-overlapped exonic regions was generated based on genome annotation. Then the BED file and footprint BAM files were given as an input to SAMTOOLS (Li et al., 2009a) to generate new BAM files that only included exonic alignment. The exonic BAM files were input for two conditions to rDiff (Drewe et al., 2013) to identify genes that presented significant change in ribosomal distribution.
Sequence Alignment. The human genome sequence hg19 was downloaded from UCSC public database: http://hgdownload.cse.ucsc.edu/goldenPath/hg19/chromosomes. Ribosome footprint (RF) reads were aligned to reference genome hg19 using PALMapper (Jean et al., 2010). PALMapper clips the linker sequence (5′-[…]-3′), which is technically introduced during RF library construction, and trims the remaining sequence from the 3′ end while aligning the reads to reference sequence. Briefly, the parameters for PALMapper were set as follows: maximum number of mismatches: 2; maximum number of gaps: 0; minimum aligning length: 15; maximum intron length (splice alignment): 10000; minimum length of a splicing read aligned to either side of the intron boundary: 10. Only the uniquely aligned reads were used for further analysis.
To remove ribosome RNA contamination, the footprint reads were also aligned to a ribosome sequence database using PALMapper with the same parameters except allowing splice alignment. […]

COC(=O)[C@H]1[C@@H](O)[C@@]2(O)c3c(OC)cc(O[C@@H]4O[C@@H]([C@H](O)CO)CO[C@H]4OC)cc3O[C@@]2(c2ccc(OC)cc2)[C@@H]1c1ccccc1 [silvestrol]
sensitivity (renal carcinoma lines): range of sensitivities
effect on cap-dependent translation (ribosome footprints) (KOPTK1 cells; 25 nM, 45 minutes): immediate and broad inhibitory effect
log2(Translational Efficiency) (KOPTK1 cells; gene ADAM10 (ENSG00000137845)): −0.2089
log2(Translational Efficiency) (KOPTK1 cells; gene AFTPH (ENSG00000119844)): −0.5917
log2(Translational Efficiency) (KOPTK1 cells; gene ATP2B4 (ENSG00000058668)): −0.3028
log2(Translational Efficiency) (KOPTK1 cells; gene BCL11B (ENSG00000127152)): −0.5178
log2(Translational Efficiency) (KOPTK1 cells; gene C16orf72 (ENSG00000182831)): −0.2553
log2(Translational Efficiency) (KOPTK1 cells; gene CAMK2D (ENSG00000145349)): −0.4082
log2(Translational Efficiency) (KOPTK1 cells; gene CCRN4L (ENSG00000151014)): −0.4802
log2(Translational Efficiency) (KOPTK1 cells; gene CDIPT (ENSG00000103502)): −0.324
log2(Translational Efficiency) (KOPTK1 cells; gene CERS6 (ENSG00000172292)): −0.2051
log2(Translational Efficiency) (KOPTK1 cells; gene CHIC2 (ENSG00000109220)): −0.5212
log2(Translational Efficiency) (KOPTK1 cells; gene CHST11 (ENSG00000171310)): −0.146
log2(Translational Efficiency) (KOPTK1 cells; gene CPSF4 (ENSG00000160917)): −0.3194
log2(Translational Efficiency) (KOPTK1 cells; gene DIAPH1 (ENSG00000131504)): −0.2136
log2(Translational Efficiency) (KOPTK1 cells; gene DOM3Z (ENSG00000204348)): −0.5959
log2(Translational Efficiency) (KOPTK1 cells; gene DYNLL2 (ENSG00000121083)): −0.1378
log2(Translational Efficiency) (KOPTK1 cells; gene EP300 (ENSG00000100393)): −0.4645
log2(Translational Efficiency) (KOPTK1 cells; gene FAM49B (ENSG00000153310)): −0.1392
log2(Translational Efficiency) (KOPTK1 cells; gene FKRP (ENSG00000181027)): −0.996
log2(Translational Efficiency) (KOPTK1 cells; gene FOXJ2 (ENSG00000065970)): −0.4735
log2(Translational Efficiency) (KOPTK1 cells; gene GABARAPL1 (ENSG00000139112)): −1.234
log2(Translational Efficiency) (KOPTK1 cells; gene GIPC1 (ENSG00000123159)): −0.4783
log2(Translational Efficiency) (KOPTK1 cells; gene GNB1 (ENSG00000078369)): −0.1338
log2(Translational Efficiency) (KOPTK1 cells; gene GYG2 (ENSG00000056998)): −0.9297
log2(Translational Efficiency) (KOPTK1 cells; gene HDGFRP3 (ENSG00000166503)): −0.6088
log2(Translational Efficiency) (KOPTK1 cells; gene HIPK1 (ENSG00000163349)): −0.2827
log2(Translational Efficiency) (KOPTK1 cells; gene ITPR1 (ENSG00000150995)): −0.6283
log2(Translational Efficiency) (KOPTK1 cells; gene MAP3K2 (ENSG00000169967)): −0.377
log2(Translational Efficiency) (KOPTK1 cells; gene MAPKAPK2 (ENSG00000162889)): −0.3527
log2(Translational Efficiency) (KOPTK1 cells; gene MBNL1 (ENSG00000152601)): −0.1522
log2(Translational Efficiency) (KOPTK1 cells; gene MED13 (ENSG00000108510)): −0.2939
log2(Translational Efficiency) (KOPTK1 cells; gene MED13L (ENSG00000123066)): −0.4159
log2(Translational Efficiency) (KOPTK1 cells; gene MGRN1 (ENSG00000102858)): −0.3096
log2(Translational Efficiency) (KOPTK1 cells; gene MTA2 (ENSG00000149480)): −0.2235
log2(Translational Efficiency) (KOPTK1 cells; gene MYO9A (ENSG00000066933)): −0.4735
log2(Translational Efficiency) (KOPTK1 cells; gene NANS (ENSG00000095380)): −0.3218
log2(Translational Efficiency) (KOPTK1 cells; gene NDFIP1 (ENSG00000131507)): −0.2429
log2(Translational Efficiency) (KOPTK1 cells; gene PABPC4 (ENSG00000090621)): −0.2428
log2(Translational Efficiency) (KOPTK1 cells; gene PAFAH1B1 (ENSG00000007168)): −0.3832
log2(Translational Efficiency) (KOPTK1 cells; gene PAFAH1B2 (ENSG00000168092)): −0.3883
log2(Translational Efficiency) (KOPTK1 cells; gene PAIP2 (ENSG00000120727)): −0.1573
log2(Translational Efficiency) (KOPTK1 cells; gene PAK4 (ENSG00000130669)): −0.628
log2(Translational Efficiency) (KOPTK1 cells; gene PANX1 (ENSG00000110218)): −0.3987
log2(Translational Efficiency) (KOPTK1 cells; gene PATZ1 (ENSG00000100105)): −0.3245
log2(Translational Efficiency) (KOPTK1 cells; gene PPP6R1 (ENSG00000105063)): −0.1576
log2(Translational Efficiency) (KOPTK1 cells; gene PTGER4 (ENSG00000171522)): −0.2748
log2(Translational Efficiency) (KOPTK1 cells; gene PTP4A2 (ENSG00000184007)): −0.1429
log2(Translational Efficiency) (KOPTK1 cells; gene QKI (ENSG00000112531)): −0.2913
log2(Translational Efficiency) (KOPTK1 cells; gene RFXANK (ENSG00000064490)): −0.3247
log2(Translational Efficiency) (KOPTK1 cells; gene RNF4 (ENSG00000063978)): −0.3442
log2(Translational Efficiency) (KOPTK1 cells; gene RNF19A (ENSG00000034677)): −0.4839
log2(Translational Efficiency) (KOPTK1 cells; gene RPS12 (ENSG00000112306)): −0.1732
log2(Translational Efficiency) (KOPTK1 cells; gene SHISA2 (ENSG00000180730)): −0.6086
log2(Translational Efficiency) (KOPTK1 cells; gene SLC25A22 (ENSG00000177542)): −0.3386
log2(Translational Efficiency) (KOPTK1 cells; gene SLC35B3 (ENSG00000124786)): −0.9178
log2(Translational Efficiency) (KOPTK1 cells; gene SMEK1 (ENSG00000100796)): −0.1765
log2(Translational Efficiency) (KOPTK1 cells; gene SRRM2 (ENSG00000167978)): −0.08166
log2(Translational Efficiency) (KOPTK1 cells; gene STAG2 (ENSG00000101972)): −0.1873
log2(Translational Efficiency) (KOPTK1 cells; gene TAF6 (ENSG00000106290)): −0.2102
log2(Translational Efficiency) (KOPTK1 cells; gene TBC1D24 (ENSG00000162065)): −1.231
log2(Translational Efficiency) (KOPTK1 cells; gene TGFB1 (ENSG00000105329)): −0.2213
log2(Translational Efficiency) (KOPTK1 cells; gene TLE3 (ENSG00000140332)): −0.2278
log2(Translational Efficiency) (KOPTK1 cells; gene TMEM248 (ENSG00000106609)): −0.2362
log2(Translational Efficiency) (KOPTK1 cells; gene TNRC6B (ENSG00000100354)): −0.4442
log2(Translational Efficiency) (KOPTK1 cells; gene TRIM2 (ENSG00000109654)): −2.147
log2(Translational Efficiency) (KOPTK1 cells; gene TUBGCP4 (ENSG00000137822)): −0.5346
log2(Translational Efficiency) (KOPTK1 cells; gene UBE2G1 (ENSG00000132388)): −0.3367
log2(Translational Efficiency) (KOPTK1 cells; gene USP20 (ENSG00000136878)): −0.2066
log2(Translational Efficiency) (KOPTK1 cells; gene ZNF48 (ENSG00000180035)): −0.5828
log2(Translational Efficiency) (KOPTK1 cells; gene ZNF800 (ENSG00000048405)): −0.2711
